# Measurements: patent publication US20250327034A1, “CELL CULTURE MEDIUM” (Ajinomoto Co., Inc., priority 2022, published 2025)
# Tested on: CHO cell
# Assay: CHO cell fed-batch culture (ambr15) with high L-cysteine feed: antibody yield (Example 6)
# Format: cell-based, Chinese hamster
# Settings: CHO cells, 11 mM, 18 mM and 23-24 mM equivalent L-cysteine feed sections
# Procedure: Basal media were prepared by adding a final concentration of 4 mM L-Glutamine (Thermo Fisher Scientific: 25030081) to media that were designed on the basis of CELLIST™ Basal media (AJINOMOTO CO., INC.: BASAL10).
# Feed Media A were prepared on the basis of the commercially available CELLIST™ Feed media (AJINOMOTO CO., INC.: FEED 2). Feed media A containing a final concentration of 11 or 18 mM L-cysteine and 60 g/L glucose were prepared to have a pH of 6.7-6.9 according to the procedures described in the product instructions for FEED 2.
# A 110 mM L-cysteine solution (pH 11.3) was prepared.
# Using the prepared basal media, CHO suspensions adjusted to 7×10^5 celllls/mL were cultured for 14 days using the ambr15 cell culture system (Sartorius AG). All of the experimental groups were performed with n=2. […] The antibody yields on day 14 in these conditioned sections were measured using Cedex Bio HT (Roche Diagnostics K.K.)
smiles,measurement,value
N[C@@H](CS)C(=O)O [L-cysteine],Antibody yield on day 14,improves the antibody yield
